# Results reported in patent US11845752B2, “Substituted imidazo[1,5-a]pyrazines for the treatment of hepatitis B” (ALIGOS THERAPEUTICS, INC., priority 2020, dated 2023).
# Test system: HBV
# Experiment: HBV-DNA antiviral assay using HepG2.117 cells (intracellular HBV DNA by qPCR)
# Type: cell-based, HBV genotype D
# Details: HBV DNA inhibition, 3 days incubation, read-out: EC50
# How it was run: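 Read-outs: cell-lysate HBV DNA copies by qPCR (interpolated from gBlock standard) and parallel cellular ATP luminescence for CC50, both normalised to 2% DMSO controls and fitted by non-linear regression. HepG2.117 Tet-off genotype D HBV cells, induced by doxycycline removal, exposed 3 days to 4-fold serial dilutions.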
row,SMILES,EC50
1,"C#Cc1cc(C(=O)N2Cc3c(C(=O)NCc4ccccc4-c4ccncn4)n(-c4ccc(OC5CC5)cc4)c(=O)n3CC2C)ccc1Br (single isomer, unassigned) [Compound 20a]",500 to 5000 nM
2,"CCC(=O)COc1ccc(-n2c(C(=O)NCc3ccccc3-c3ncccn3)c3n(c2=O)CC(C)N(C(=O)c2ccc(Br)c(C(F)(F)F)c2)C3)cc1 (single isomer, unassigned) [Compound 70b]",< 50 nM
3,"CC1Cn2c(c(C(=O)NCc3ccccc3-c3c[nH]cn3)n(-c3ccc(OC4CC4)cc3)c2=O)CN1C(=O)c1ccc(Br)c(Cl)c1 (single isomer, unassigned) [Compound 44b]",< 50 nM
4,"CC1Cn2c(c(C(=O)NCc3ccccc3-c3ccncn3)n(-c3ccc(N4CCO[C@H](C)C4)cc3)c2=O)CN1C(=O)c1ccc(Br)c(Cl)c1 (stereo in doubt) [Compound 15b, (6S*)-7-(4-bromo-3-chloro-benzoyl)-6-methyl-2-[4-[(2R)-2-methylmorpholin-4-yl]phenyl]-3-oxo-N-[(2-pyrimidin-4-ylphenyl)methyl]-6,8-dihydro-5H-imidazo[1,5-a]pyrazine-1-carboxamide]",< 50 nM

# Same assay, conditions: Hepatitis B virus, HepG2.117, 72 h, HBV DNA inhibition, 3 days incubation, read-out: EC50
row,SMILES,EC50
1,"CC1Cn2c(c(C(=O)NCc3ccccc3-c3ncccn3)n(-c3ccc4c(cnn4CC(F)(F)F)c3)c2=O)CN1C(=O)c1ccc(Br)c(C(F)(F)F)c1 (single isomer, unassigned) [Compound 100a]",< 50 nM
2,"CC1Cn2c(c(C(=O)NCc3c(F)cccc3-c3nccc(N)n3)n(-c3ccc(OC4CC4)cc3)c2=O)CN1C(=O)c1ccc(Br)c(C(F)(F)F)c1 (single isomer, unassigned) [Compound 32a]",< 50 nM
3,"CC1Cn2c(c(C(=O)NCc3ccccc3-c3cccnn3)n(-c3ccc(OC4CC4)cc3)c2=O)CN1C(=O)c1ccc(Br)c(Cl)c1 (single isomer, unassigned) [Compound 7a, 7-(4-bromo-3-chloro-benzoyl)-2-[4-(cyclopropoxy)phenyl]-6-methyl-3-oxo-N-[(2-pyridazin-3-ylphenyl)methyl]-6,8-dihydro-5H-imidazo[1,5-a]pyrazine-1-carboxamide]",50 to 500 nM
4,"CC1Cn2c(c(C(=O)NCc3ccccc3-c3nccc(N)n3)n(-c3ccc(OC4CC4)cc3)c2=O)CN1C(=O)c1ccc(Br)c(C(F)(F)F)c1 (single isomer, unassigned) [Compound 29a]",< 50 nM
5,"Cc1nc2cc(-n3c(C(=O)NCc4ccccc4-c4ccncn4)c4n(c3=O)CC(C)N(C(=O)c3ccc(Br)c(C(F)(F)F)c3)C4)ccc2o1 (single isomer, unassigned) [Compound 48a]",50 to 500 nM
6,"CN[C@H](C)COc1ccc(-n2c(C(=O)NCc3ccccc3-c3ncccn3)c3n(c2=O)C[C@H](C)N(C(=O)c2ccc(Br)c(C(F)(F)F)c2)C3)cc1 (racemic) [Compound 95b, rac-(6S)-7-[4-bromo-3-(trifluoromethyl)benzoyl]-6-methyl-2-[4-[2-(methylamino)propoxy]phenyl]-3-oxo-N-[(2-pyrimidin-2-ylphenyl)methyl]-6,8-dihydro-5H-imidazo[1,5-a]pyrazine-1-carboxamide]",50 to 500 nM
7,"CNc1cc(-c2ccccc2CNC(=O)c2c3n(c(=O)n2-c2ccc(OC4CC4)cc2)C[C@@H](C)N(C(=O)c2ccc(Br)c(Cl)c2)C3)ncn1 (stereo in doubt) [Compound 39a, rac-(6R)-7-(4-bromo-3-chloro-benzoyl)-2-[4-(cyclopropoxy)phenyl]-(methylamino)pyrimidin-4-6-methyl-N-[[246-yl]phenyl]methyl]-3-oxo-6,8-dihydro-5H-imidazo[1,5-a]pyrazine-1-carboxamide]",50 to 500 nM
8,"C[C@H](O)COc1ccc(-n2c(C(=O)NCc3ccccc3-c3ncccn3)c3n(c2=O)C[C@H](C)N(C(=O)c2ccc(Br)c(C(F)(F)F)c2)C3)cc1 (racemic) [Compound 65b, (6SR)-7-[4-bromo-3-(trifluoromethyl)benzoyl]-2-[4-[(25)-2-hydroxypropoxy]phenyl]-6-methyl-3-oxo-N-[(2-pyrimidin-2-ylphenyl)methyl]-6,8-dihydro-5H-imidazo[1,5-a]pyrazine-1-carboxamide]",50 to 500 nM
